Results taken from patent US20220267350A1, “ADENOSINE RECEPTOR ANTAGONIST” (XIAMEN BIOTIME BIOTECHNOLOGY CO., LTD., priority 2019, published 2022).

Key:
A2A receptor = A2A receptor (Homo sapiens, UniProt P29274); test: A2A receptor antagonist functional assay (cAMP, NECA at EC80); type: cell-based; conditions: A2A cell line (PerkinElmer ES-011-C); 5'-N-ethylcarboxamidoadenosine at EC80; cAMP readout; read-out: A2A Antagonistic function IC50
Method: (§1) The A2A cell line was derived from PerkinElmer (Product ID: ES-011-C); the A2B cell line was derived from PerkinElmer (Product ID: ES-013-C). The experimental procedure was referred to ACS Medicinal Chemistry Letters (2011) 2, 213-218; the specific test was completed by Pharmaron Beijing Co., Ltd. with the following steps: 10 nL of compound stock in DMSO (10 mM) followed by 10 μL of A2A or A2B cell suspension (30000 cells/mL) were transferred to assay wells of a 384-well plate at room temperature and incubated for 20 minutes at room temperature. The corresponding amount of 5′-N-ethylcarboxamidoadenosine at EC80 activation concentration was transferred to each test well, and incubated for another 30 minutes at 37° C., 5% CO2, 95% humidity, then Eu-cAMP tracer working solution and Ulight-anti-cAMP working solution were added to the cell culture plate at 5 uL/well in sequence, and the cell plate fluorescence was read with Envision (excitation wavelength: 320 nm, emission wavelength: 665 nm and 615 nm). The corresponding inhibition rate in each well was obtained according to the following formula, and a sigmoidal dose-inhibition rate curve was plotted using a non-linear regression model to calculate the IC50 value.

A2B receptor = target: T1, A2B receptor (Homo sapiens, UniProt P29275); test: A2B receptor antagonist functional assay (cAMP, NECA at EC80); type: cell-based; conditions: A2B cell line (PerkinElmer ES-013-C); 5'-N-ethylcarboxamidoadenosine at EC80; cAMP readout; read-out: A2B Antagonistic function IC50
T1 sequence (P29275 1-332): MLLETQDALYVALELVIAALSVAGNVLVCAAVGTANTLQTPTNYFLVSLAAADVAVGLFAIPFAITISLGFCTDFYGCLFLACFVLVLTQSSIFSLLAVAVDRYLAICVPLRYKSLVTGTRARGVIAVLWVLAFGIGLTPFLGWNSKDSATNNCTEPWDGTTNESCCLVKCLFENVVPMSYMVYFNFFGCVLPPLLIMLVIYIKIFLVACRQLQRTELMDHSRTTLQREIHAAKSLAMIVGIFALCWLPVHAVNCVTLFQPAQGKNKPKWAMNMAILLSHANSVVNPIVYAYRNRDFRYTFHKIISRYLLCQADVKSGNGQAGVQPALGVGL
Method: as §1

Chain of A2A receptor (P29274 whole entry): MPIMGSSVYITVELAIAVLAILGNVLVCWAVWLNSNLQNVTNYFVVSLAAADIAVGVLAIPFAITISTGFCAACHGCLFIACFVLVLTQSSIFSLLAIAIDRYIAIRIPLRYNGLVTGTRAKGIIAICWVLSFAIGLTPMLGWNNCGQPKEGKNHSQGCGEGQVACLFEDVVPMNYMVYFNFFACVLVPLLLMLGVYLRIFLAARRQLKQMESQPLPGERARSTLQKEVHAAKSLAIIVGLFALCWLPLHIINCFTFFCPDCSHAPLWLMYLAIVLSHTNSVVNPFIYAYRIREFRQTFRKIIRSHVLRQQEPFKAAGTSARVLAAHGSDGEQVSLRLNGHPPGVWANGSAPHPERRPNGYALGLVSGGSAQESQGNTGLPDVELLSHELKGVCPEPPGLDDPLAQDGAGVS

SMILES	IC50 (A2A receptor)	IC50 (A2B receptor)
COc1cccc(Cc2noc3c(-c4ccc(C)o4)nc(N)nc23)c1 [Compound 1]	3.8 nM	149 nM
COc1ccccc1Cc1noc2c(-c3ccc(C)o3)nc(N)nc12 [Compound 4]	6.9 nM	
Cc1ccc(-c2nc(N)nc3c(Cc4cccc(Cl)c4)noc23)o1 [Compound 6]	3.7 nM	
Cc1ccc(-c2nc(N)nc3c(Cc4cccc(O)c4)noc23)o1 [Compound 7]	11 nM	11 nM
Cc1ccc(-c2nc(N)nc3c(Cc4ccccc4O)noc23)o1 [Compound 9]	10.2 nM	

The next lines start with the values.

IC50 (A2A receptor)	IC50 (A2B receptor)	SMILES
7 nM		Cc1ccc(-c2nc(N)nc3c(Cc4ccc(F)cc4)noc23)o1 [Compound 2]
120 nM		COc1ccc(Cc2noc3c(-c4ccc(C)o4)nc(N)nc23)cc1 [Compound 3]
31.8 nM		Cc1ccc(-c2nc(N)nc3c(Cc4ccc(Cl)cc4)noc23)o1 [Compound 5]
80 nM		Cc1ccc(-c2nc(N)nc3c(Cc4ccc(O)cc4)noc23)o1 [Compound 8]
